# In PubChem BioAssay (NCI):
#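 Following 48 hours of exposure in 96-well plates, responses at five concentrations were used to interpolate endpoints linearly. The concentration for full growth arrest is given as TGI.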 Where a SMILES comes first, the peptide text is derived from it. [ ]: non-standard residue; d: D form. The star is where a group is joined. ξ: configuration not given here. Propanoyl(3-(4-MeO-Ph)) = COc1ccc(CCC(=O)*)cc1; Thr(3ξ) = CC(O)[C@H](N)C(=O)O; dNMeL = CN[C@H](CC(C)C)C(=O)O; OBn = c1ccc(CO*)cc1; ξLac = CC(O)C(=O)O
# Legend:
# Test in all cases: NCI tumour cell line growth inhibition, 48 h
# PC-3 prostate = test system: PC-3 prostate
# 786-0 renal = test system: 786-0 renal
# A549 NSCLC = test system: A549 NSCLC
# ACHN renal = test system: ACHN renal
# IGROV1 ovarian = test system: IGROV1 ovarian
# SNB-19 CNS = test system: SNB-19 CNS
# NCI-H522 lung = test system: NCI-H522 lung
# U251 CNS = test system: U251 CNS
# HOP-92 NSCLC = test system: HOP-92 NSCLC
# T-47D breast = test system: T-47D breast
# UACC-62 melanoma = test system: UACC-62 melanoma
# COLO 205 colon = test system: COLO 205 colon
# MDA-MB-231 breast = test system: MDA-MB-231 breast
# DU-145 prostate = test system: DU-145 prostate
# SK-MEL-2 melanoma = test system: SK-MEL-2 melanoma
# BT-549 breast = test system: BT-549 breast
# SK-MEL-5 melanoma = test system: SK-MEL-5 melanoma
# UACC-257 melanoma = test system: UACC-257 melanoma
# K-562 leukemia = test system: K-562 leukemia
# CAKI-1 renal = test system: CAKI-1 renal
# MALME-3M melanoma = test system: MALME-3M melanoma
# NCI-H460 lung = test system: NCI-H460 lung
# EKVX NSCLC = test system: EKVX NSCLC
# SR leukemia = test system: SR leukemia
# SK-MEL-28 melanoma = test system: SK-MEL-28 melanoma
# UO-31 renal = test system: UO-31 renal
# HS 578T breast = test system: HS 578T breast
# CCRF-CEM leukemia = test system: CCRF-CEM leukemia
# SF-268 CNS = test system: SF-268 CNS
# NCI/ADR-RES ovarian = test system: NCI/ADR-RES ovarian
# TK-10 renal = test system: TK-10 renal
# SN12C renal = test system: SN12C renal
# HCT-15 colon = test system: HCT-15 colon
# A498 renal = test system: A498 renal
# SK-OV-3 ovarian = test system: SK-OV-3 ovarian
# NCI-H226 lung = test system: NCI-H226 lung
# MOLT-4 leukemia = test system: MOLT-4 leukemia
# HCC-2998 colon = test system: HCC-2998 colon
# SNB-75 CNS = test system: SNB-75 CNS
# MDA-N = test system: MDA-N
# HCT-116 colon = test system: HCT-116 colon
# LOX IMVI melanoma = test system: LOX IMVI melanoma
# HL-60(TB) leukemia = test system: HL-60(TB) leukemia
# MCF7 breast = test system: MCF7 breast
# OVCAR-5 ovarian = test system: OVCAR-5 ovarian
# SW-620 colon = test system: SW-620 colon
# M14 melanoma = test system: M14 melanoma
# SF-539 CNS = test system: SF-539 CNS
# OVCAR-4 ovarian = test system: OVCAR-4 ovarian
# HT29 colon = test system: HT29 colon
# MDA-MB-435 = test system: MDA-MB-435
# OVCAR-3 ovarian = test system: OVCAR-3 ovarian
# RPMI-8226 leukemia = test system: RPMI-8226 leukemia
# HOP-62 NSCLC = test system: HOP-62 NSCLC
# OVCAR-8 ovarian = test system: OVCAR-8 ovarian
# RXF 393 renal = test system: RXF 393 renal
# KM12 colon = test system: KM12 colon
# SF-295 CNS = test system: SF-295 CNS
# NCI-H23 lung = test system: NCI-H23 lung
compound,measurement,setting,value
COc1ccc(CCC(=O)OC(C)[C@H](NC(=O)[C@@H](CC(C)C)N(C)C(=O)[C@@H]2CCCN2C(=O)C(C)O)C(=O)OCc2ccccc2)cc1 (some centres undefined) (H-[ξLac]P[dNMeL][Thr(3ξ)](Propanoyl(3-(4-MeO-Ph)))-OBn),TGI,PC-3 prostate,> 100 µM
same,TGI,786-0 renal,> 100 µM
same,TGI,A549 NSCLC,> 100 µM
same,TGI,ACHN renal,> 100 µM
same,TGI,IGROV1 ovarian,91.9 µM
same,TGI,SNB-19 CNS,> 100 µM
same,TGI,NCI-H522 lung,50.4 µM
same,TGI,U251 CNS,> 100 µM
same,TGI,HOP-92 NSCLC,41.6 µM
same,TGI,T-47D breast,74.5 µM
same,TGI,UACC-62 melanoma,37.9 µM
same,TGI,COLO 205 colon,39 µM
same,TGI,MDA-MB-231 breast,46.5 µM
same,TGI,DU-145 prostate,> 100 µM
same,TGI,SK-MEL-2 melanoma,36.9 µM
same,TGI,BT-549 breast,> 100 µM
same,TGI,SK-MEL-5 melanoma,28.8 µM
same,TGI,UACC-257 melanoma,35.6 µM
same,TGI,K-562 leukemia,74.5 µM
same,TGI,CAKI-1 renal,> 100 µM
same,TGI,MALME-3M melanoma,45.4 µM
same,TGI,NCI-H460 lung,> 100 µM
same,TGI,EKVX NSCLC,> 100 µM
same,TGI,SR leukemia,> 100 µM
same,TGI,SK-MEL-28 melanoma,32.9 µM
same,TGI,UO-31 renal,> 100 µM
same,TGI,HS 578T breast,27.8 µM
same,TGI,CCRF-CEM leukemia,68.9 µM
same,TGI,SF-268 CNS,99.5 µM
same,TGI,NCI/ADR-RES ovarian,> 100 µM
same,TGI,TK-10 renal,> 100 µM
same,TGI,SN12C renal,> 100 µM
same,TGI,HCT-15 colon,> 100 µM
same,TGI,A498 renal,> 100 µM
same,TGI,SK-OV-3 ovarian,> 100 µM
same,TGI,NCI-H226 lung,98.3 µM
same,TGI,MOLT-4 leukemia,63 µM
same,TGI,HCC-2998 colon,> 100 µM
same,TGI,SNB-75 CNS,45.7 µM
same,TGI,MDA-N,> 100 µM
same,TGI,HCT-116 colon,> 100 µM
same,TGI,LOX IMVI melanoma,41.4 µM
same,TGI,HL-60(TB) leukemia,72.6 µM
same,TGI,MCF7 breast,> 100 µM
same,TGI,OVCAR-5 ovarian,> 100 µM
same,TGI,SW-620 colon,> 100 µM
same,TGI,M14 melanoma,30.6 µM
same,TGI,SF-539 CNS,46.2 µM
same,TGI,OVCAR-4 ovarian,> 100 µM
same,TGI,HT29 colon,> 100 µM
same,TGI,MDA-MB-435,44.7 µM
same,TGI,OVCAR-3 ovarian,73.4 µM
same,TGI,RPMI-8226 leukemia,80.6 µM
same,TGI,HOP-62 NSCLC,> 100 µM
same,TGI,OVCAR-8 ovarian,> 100 µM
same,TGI,RXF 393 renal,44.7 µM
same,TGI,KM12 colon,79.4 µM
same,TGI,SF-295 CNS,> 100 µM
same,TGI,NCI-H23 lung,> 100 µM
